Measured values from PMC6811590, “Solution structure, glycan specificity and of phenol oxidase inhibitory activity of Anopheles C-type lectins CTL4 and CTLMA2” (Scientific Reports, 2019).

What was measured:
CTL4 = target: T1, CTL4 (Anopheles gambiae, UniProt Q7Q7F7); assay: SPR steady-state affinity (Biacore T200, protein immobilised on CM5); type: binding; settings: PBS, 1 mM CaCl2, 1 mM MgCl2
T1 construct: gene 1276043; 6xHis-tagged CTL4 monomer, secreted from T.ni insect cells (baculovirus, synthetic gene)
T1 sequence (Q7Q7F7 25-177): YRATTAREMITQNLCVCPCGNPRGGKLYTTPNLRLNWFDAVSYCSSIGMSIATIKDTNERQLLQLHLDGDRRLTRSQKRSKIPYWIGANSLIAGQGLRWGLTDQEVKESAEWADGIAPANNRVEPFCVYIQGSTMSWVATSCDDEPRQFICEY
Description: SPR steady-state affinity (Biacore T200, protein immobilised on CM5) on CTL4

CTLMA2 [1] = target: T2, CTLMA2 (Anopheles gambiae, UniProt Q7Q7F8); assay: as above; type: binding; settings: PBS, 1 mM CaCl2, 1 mM MgCl2
T2 construct: gene 1276042; 6xHis-tagged CTLMA2 monomer, secreted from T.ni insect cells (baculovirus, synthetic gene)
T2 sequence (Q7Q7F8 18-174): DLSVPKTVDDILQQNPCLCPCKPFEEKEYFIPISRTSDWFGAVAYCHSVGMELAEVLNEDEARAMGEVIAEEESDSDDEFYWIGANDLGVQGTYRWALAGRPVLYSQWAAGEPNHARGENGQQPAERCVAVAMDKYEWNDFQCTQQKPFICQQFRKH
Description: SPR steady-state affinity (Biacore T200, protein immobilised on CM5) on CTLMA2

CTL4/CTLMA2 [2] = target: T3, CTL4/CTLMA2 (Anopheles gambiae, UniProt Q7Q7F7+Q7Q7F8); assay: as above; type: binding; settings: PBS, 1 mM CaCl2, 1 mM MgCl2
T3 construct: gene 1276043; disulfide-bridged heterodimer, pFastbac-Dual, C-terminal 6xHis on CTL4 (178-183), secreted from T.ni cells, signal peptides removed; 35 kDa
T3 sequence (Q7Q7F7 25-177): T1 sequence (Q7Q7F7 25-177)
T3 sequence (Q7Q7F8 18-174): T2 sequence (Q7Q7F8 18-174)
Description: SPR steady-state affinity (Biacore T200, protein immobilised on CM5) on CTL4/CTLMA2

CTL4/CTLMA2 [3] = target: T3, CTL4/CTLMA2; assay: glycan array, anti-His fluorescence detection; type: binding; settings: PBS, 1 mM CaCl2, 1 mM MgCl2; glycan immobilised through spacer
Description: glycan array, anti-His fluorescence detection on CTL4/CTLMA2

[4] = system: An. gambiae CTL4 (AGAP005335) with C-terminal 6xHis tag, chain of the CTL4/CTLMA2 heterodimer; assay: non-reducing SDS-PAGE; purified CTL4/CTLMA2 on non-reducing and reducing SDS-PAGE; shows the disulfide-bridged species; settings: other: non-reducing SDS-PAGE
CTLMA2 [5] = target: T2, CTLMA2; assay: glycan array, anti-His fluorescence detection; type: binding; settings: PBS, 1 mM CaCl2, 1 mM MgCl2; glycan immobilised through spacer
Description: glycan array, anti-His fluorescence detection on CTLMA2

Row | Compound | Kd (CTLMA2 [1]) [µM] | Kd (CTL4/CTLMA2 [2]) [µM] | also measured
1 | CC(=O)N[C@H]1C(O)O[C@H](CO)[C@@H](O)[C@@H]1O (stereo partly drawn) [113,251, GlcNAc monosaccharide] | 29.7 ± 7.91 | 21.9 ± 2.8 | Kd (CTL4): 27.9 ± 11.4 µM
2 | CC(=O)N[C@H]1[C@H](O[C@H]2[C@@H](O)[C@@H](CO)O[C@@H](O[C@H]3[C@H](O)[C@@H](O)C(O)O[C@@H]3CO)[C@@H]2O)O[C@H](CO)[C@@H](O[C@@H]2O[C@H](CO)[C@H](O)[C@H](O)[C@H]2O)[C@@H]1O (stereo partly drawn) [383,488, LNnT] | – | 17.6 ± 2.99 | –
3 | O=P(O)(O)OC[C@H]1OC(O)[C@@H](O)[C@@H](O)[C@@H]1O (stereo partly drawn) [compound 47, 6-H2PO3Manα-sp3] | – | – | CTL4/CTLMA2 (CTL4/CTLMA2 [3]): 1.32 fold
4 | CC(=O)N[C@H]1C(O)O[C@H](CO)[C@@H](O[C@@H]2O[C@H](COS(=O)(=O)O)[C@H](O)[C@H](O)[C@H]2O)[C@@H]1O (stereo partly drawn) [compound 163] | – | – | Kd (CTL4): 0.292 ± 0.15 µM
5 | CC(=O)N[C@H]1C(O)O[C@H](CO)[C@@H](O[C@@H]2O[C@@H](C)[C@@H](O)[C@@H](O)[C@@H]2O)[C@@H]1O[C@@H]1O[C@H](CO)[C@H](O)[C@H](OS(=O)(=O)O)[C@H]1O (stereo partly drawn) [compound 287, Sulfo-Lewis A] | 0.106 ± 0.06 | 0.095 ± 0.02 | –
6 | CC(=O)N[C@H]1[C@@H](O[C@H]2[C@@H](O)[C@@H](CO)OC(O)[C@@H]2O[C@@H]2O[C@@H](C)[C@@H](O)[C@@H](O)[C@@H]2O)O[C@H](CO)[C@H](O)[C@@H]1O (stereo partly drawn) [compound 386, A blood group trisaccharide] | 1.77 ± 0.19 | 5.56 ± 2.9 | Kd (CTL4): 49.3 ± 12.2 µM
7 | CC(=O)N[C@H]1[C@H]([C@H](O)[C@H](O)CO)O[C@@](O[C@H]2[C@@H](O)[C@@H](CO)O[C@@H](O[C@H]3[C@H](O[C@@H]4O[C@@H](C)[C@@H](O)[C@@H](O)[C@@H]4O)[C@@H](NC(C)=O)C(O)O[C@@H]3CO)[C@@H]2O)(C(=O)O)C[C@@H]1O (stereo partly drawn) [compound 428, Sialyl-Lewis X] | 0.619 ± 0.1 | 3.81 ± 1 | –
8 | C[C@@H]1O[C@@H](O[C@H]2C(O)O[C@H](CO)[C@H](O)[C@@H]2O)[C@@H](O)[C@H](O)[C@@H]1O (stereo partly drawn) [compound 479, H disaccharide] | 10.4 ± 3.26 | 26.6 ± 6.81 | –
9 | CC(=O)N[C@H]1[C@H](O[C@H]2[C@@H](O)[C@@H](CO)O[C@@H](O[C@H]3[C@H](O)[C@@H](O)C(O)O[C@@H]3CO)[C@@H]2O)O[C@H](CO)[C@@H](O)[C@@H]1O[C@@H]1O[C@H](CO)[C@H](O)[C@H](O)[C@H]1O (stereo partly drawn) [compound 536, LNT] | – | 8.22 ± 1.71 | –
10 | An. gambiae CTLMA2 (AGAP005334), chain of the CTL4/CTLMA2 heterodimer | – | – | percent of the purified product that is heterodimer [4]: the purified product is overwhelmingly (>95%) heterodimer
11 | GlcNAcβ1-4Galβ1-4GlcNAcβ-sp2 [compound 251] | – | – | CTLMA2 (CTLMA2 [5]): 1.04 fold
12 | Neu5Acα2-3(GalNAcβ1-4)Galβ1-4Glcβ-sp2 [compound 421] | – | – | CTL4/CTLMA2 (CTL4/CTLMA2 [3]): 1.94 fold
13 | Neu5Acα2-3Galβ1-3GlcNAcβ1-3Galβ1-4Glcβ-sp4 [compound 536] | – | – | CTL4/CTLMA2 (CTL4/CTLMA2 [3]): 2.13 fold
14 | asialo-GM1 [18B] | – | – | Kd (CTL4): 15.4 ± 3.99 µM
